Measured values: ChEMBL document CHEMBL1201862, “PubChem BioAssay data set” (2004)
Counter-ions that a name gives are not always drawn. The source made the active and inactive calls. Cut-off read from the data, not from the text of the source, for most assays here: actives have a measured EC50 and inactives only a lower limit.

Legend:
[1] = inhibitors of intracellular T. cruzi replication, confirmation, NIH3T3 host cells, beta-gal luminescence (AID 2044); format: functional, cell-based;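 note: intracellular parasites grown in NIH/3T3 mouse fibroblasts as host cells; luminescent beta-galactosidase reporter signal from transgenic T. cruzi replicating inside host cells; inhibitors lower the luminescence signal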
[2] = cytotoxicity toward NIH3T3 fibroblasts, dose response, counter-screen, cell-based, ATP luminescence, mouse fibroblasts (AID 2010); format: functional;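 note: cells exposed to compound for about 90 hours before reading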
[3] = Luminescence Cell-Based Dose Response HTS to Identify Activators of Luciferase Translation or Activity in H4 […] Cells. [Related pubchem assays: 1829 (Project Summary), 1814 (Primary HTS)]; format: functional
H4 = assay: Luminescence Cell-Based Dose Response HTS to Identify Activators of 5'UTR Stem-Loop Driven Prion Protein mRNA Translation in H4 Neuroglioblastoma Cells. [Related pubchem assays: 1829 (Project Summary), 1814 (Primary HTS)]; format: functional; details: Homo sapiens
Cytochrome P450 3A4 = Cytochrome P450 3A4 (Homo sapiens, UniProt P08684);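 note: CYP3A4 tested as one member of a cytochrome P450 panel screen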
Chain of Cytochrome P450 3A4 (P08684 whole entry): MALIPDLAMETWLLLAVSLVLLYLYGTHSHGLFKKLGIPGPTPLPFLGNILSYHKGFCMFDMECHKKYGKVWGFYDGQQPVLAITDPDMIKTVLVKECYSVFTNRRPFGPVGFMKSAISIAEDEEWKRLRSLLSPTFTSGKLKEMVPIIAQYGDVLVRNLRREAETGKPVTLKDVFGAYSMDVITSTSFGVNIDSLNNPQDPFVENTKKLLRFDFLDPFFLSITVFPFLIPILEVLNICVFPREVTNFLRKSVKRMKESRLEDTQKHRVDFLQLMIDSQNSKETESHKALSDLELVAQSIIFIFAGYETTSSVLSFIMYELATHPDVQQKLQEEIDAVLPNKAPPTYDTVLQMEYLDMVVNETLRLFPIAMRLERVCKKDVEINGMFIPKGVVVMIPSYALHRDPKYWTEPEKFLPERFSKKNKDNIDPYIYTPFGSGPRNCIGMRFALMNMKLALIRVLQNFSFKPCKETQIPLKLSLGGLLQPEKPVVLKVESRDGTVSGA

Cytochrome P450 1A2 = molecular target: T1, Cytochrome P450 1A2 (Homo sapiens, UniProt P05177);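 note: PubChem cytochrome P450 panel assay, CYP1A2 panel member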
T1 sequence (P05177 whole entry): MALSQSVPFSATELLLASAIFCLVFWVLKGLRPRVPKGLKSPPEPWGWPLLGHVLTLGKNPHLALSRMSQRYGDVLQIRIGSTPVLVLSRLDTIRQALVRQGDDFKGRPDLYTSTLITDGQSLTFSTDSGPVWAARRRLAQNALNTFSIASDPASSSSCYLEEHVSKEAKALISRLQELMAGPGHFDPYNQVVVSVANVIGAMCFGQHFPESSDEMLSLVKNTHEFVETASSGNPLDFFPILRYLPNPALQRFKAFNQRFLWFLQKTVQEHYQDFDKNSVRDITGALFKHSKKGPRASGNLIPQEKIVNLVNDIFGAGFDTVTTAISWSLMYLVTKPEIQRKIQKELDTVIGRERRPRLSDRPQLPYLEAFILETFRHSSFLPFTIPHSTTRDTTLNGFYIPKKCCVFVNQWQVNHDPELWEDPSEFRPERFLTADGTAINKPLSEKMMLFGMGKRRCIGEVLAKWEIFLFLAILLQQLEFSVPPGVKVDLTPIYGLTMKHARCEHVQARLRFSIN

[4] = Luminescence Cell-Based Dose Confirmation HTS to Identify Activators of 5'UTR Stem-Loop Driven Alpha-Synuclein mRNA Translation in H4 Neuroglioblastoma Cells. [Related pubchem assays: 1829 (Project Summary), 1814 (Primary HTS)]; format: functional
[5] = molecular target: T2, Corticotropin-releasing factor receptor 2/Corticotropin-releasing factor-binding protein (Homo sapiens, UniProt P24387+Q13324); assay: activators of CRF receptor 2 with binding protein – uHTS hits, confirmation (AID 602473); format: functional; details: read-out: EC50_Mean
T2 sequence (Q13324 whole entry): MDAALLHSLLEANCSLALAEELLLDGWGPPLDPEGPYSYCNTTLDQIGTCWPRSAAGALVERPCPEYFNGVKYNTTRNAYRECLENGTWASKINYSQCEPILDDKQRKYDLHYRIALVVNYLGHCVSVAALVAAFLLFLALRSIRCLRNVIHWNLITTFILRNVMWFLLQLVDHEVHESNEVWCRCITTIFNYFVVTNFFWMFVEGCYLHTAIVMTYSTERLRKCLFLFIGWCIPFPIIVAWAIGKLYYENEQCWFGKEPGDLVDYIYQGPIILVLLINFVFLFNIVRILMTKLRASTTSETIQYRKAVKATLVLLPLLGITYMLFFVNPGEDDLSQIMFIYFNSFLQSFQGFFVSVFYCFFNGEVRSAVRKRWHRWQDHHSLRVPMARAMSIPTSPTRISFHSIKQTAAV
T2 sequence (P24387 whole entry): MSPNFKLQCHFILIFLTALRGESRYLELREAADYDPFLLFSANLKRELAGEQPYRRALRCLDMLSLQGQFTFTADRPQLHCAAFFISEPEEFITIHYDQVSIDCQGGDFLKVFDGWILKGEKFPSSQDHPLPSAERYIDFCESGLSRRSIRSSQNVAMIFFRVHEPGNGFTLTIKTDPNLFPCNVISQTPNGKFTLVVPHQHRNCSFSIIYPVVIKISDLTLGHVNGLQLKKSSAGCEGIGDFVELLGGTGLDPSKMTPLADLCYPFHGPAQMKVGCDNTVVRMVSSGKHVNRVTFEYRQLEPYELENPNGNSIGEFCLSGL

For `Cc1[nH]c2ccc(-c3nnc(SCC(=O)N4CCCc5ccccc54)o3)cc2c1C`, the EC50 [1] was 0.782 µM (active) and the EC50 [2] was > 60 µM (not active).
In the case of `Cc1ccc(NC(=O)CN2CCCCCC2)c(Br)c1`, the EC50 [3] is reported as 9.38 µM (active) and the EC50 (H4) is reported as 59.9 µM (active).
With `Clc1ccc(CSc2nnc(-c3ccncc3)s2)cc1` the EC50 [1] was 2.14 µM (active) and the EC50 [2] was 26.3 µM (active).
In the case of `Cc1cc(C)c2c(N)c(C(=O)c3ccccc3Cl)sc2n1`, the EC50 [1] is reported as 0.1 µM (active) and the EC50 [2] is reported as > 60 µM (not active).
With `CO[C@@H]1COC(=O)[C@H](COCc2ccccc2)NC(=O)C/C=C\[C@@H](C)[C@H](OC)COC(=O)[C@@H](C)NC(=O)C/C=C\[C@H]1C` the AC50 (Cytochrome P450 3A4) was 3.16 µM (inconclusive).
For `Cn1c(C(=O)OC(C(=O)NC2CCCC2)c2cccnc2)cc2sccc21` (stereo unspecified), the EC50 [1] was 0.489 µM (active) and the EC50 [2] was > 60 µM (not active).
With `CCN1CCN(c2ccc(S(=O)(=O)N3CCOCC3)cc2NC(=O)CCOc2ccccc2)CC1` the EC50 [1] was 1.26 µM (active) and the EC50 [2] was > 60 µM (not active).
With `O[C@@H](c1cc(-c2ccccc2)nc2c1ccc1ccccc12)[C@@H]1CCCCN1` the AC50 (Cytochrome P450 1A2) was 5.01 µM (inconclusive).
With `CO[C@@H]1COC(=O)C/C=C\[C@@H](C)COC(=O)[C@H](Cc2ccccc2)NC(=O)C/C=C\[C@H]1C` the AC50 (Cytochrome P450 3A4) was 1.58 µM (inconclusive).
With `Cc1ccc(NC2CCCN(C(=O)CSc3ccncc3)C2)cc1C` (stereo unspecified) the EC50 [1] was 0.294 µM (active) and the EC50 [2] was > 60 µM (not active).
With `COc1cc2c(cc1OC)[C@@H]1Cc3ccc(OC)c(OC)c3CN1CC2` the EC50 [1] was > 60 µM (not active) and the EC50 [2] was > 60 µM (not active).
For `O=C(c1ccco1)N1CCn2c1nc1ccccc12`, the EC50 [4] was 1.12 µM (active), the EC50 [3] was 35.3 µM (active) and the EC50 (H4) was 6.26 µM (active).
For `Oc1ccc2c3c1O[C@H]1c4oc5ccccc5c4C[C@]4(O)[C@H](C2)N(CC2CC2)CC[C@@]314`, the AC50 (Cytochrome P450 3A4) was 15.8 µM (inconclusive).
In the case of `COc1ccc(C(CNC(=O)c2cc(O)nc3ccccc23)N2CCCC2)cc1` (stereo unspecified), the AC50 (Cytochrome P450 1A2) is reported as 20 µM (inconclusive) and the AC50 (Cytochrome P450 3A4) is reported as 15.8 µM (inconclusive).
For `Cc1ccc(Cl)cc1N1CCN(CC(=O)Nc2ccc(CN3CCCCC3)cc2)CC1`, the EC50 [1] was 1.31 µM (active) and the EC50 [2] was > 60 µM (not active).
For `Cc1cccc(CSc2nc3c(cc2C#N)CN(C)CC3)c1`, the EC50 [1] was 0.156 µM (active) and the EC50 [2] was > 30 µM (not active).
In the case of `O=c1c(CCc2ccccc2)nc2cnc(N3CCOCC3)nc2n1Cc1ccc(F)cc1`, the AC50 (Cytochrome P450 1A2) is reported as 10 µM (inconclusive).
In the case of `Cc1nn(CC(O)COc2ccc3c(c2)CCC3)c(C)c1Br` (stereo unspecified), the AC50 (Cytochrome P450 3A4) is reported as 15.8 µM (inconclusive).
With `Cc1cccc2sc(N(CCN(C)C)C(=O)C3CCN(S(=O)(=O)c4cccs4)CC3)nc12` the EC50 [1] was 0.24 µM (active) and the EC50 [2] was > 60 µM (not active).
With `c1ccc(Cn2c(Sc3nnnn3-c3ccccc3)nnc2-c2ccccc2)cc1` the EC50 [4] was > 120 µM (not active), the EC50 [3] was 11.9 µM (active) and the EC50 (H4) was > 120 µM (not active).
In the case of `COc1ccc(CNN2CCCCC2C(=O)Nc2ccc(OC)c(OCC(C)C)c2)cc1OC` (stereo unspecified), the EC50 [1] is reported as > 60 µM (not active) and the EC50 [2] is reported as > 60 µM (not active).
In the case of `Cc1cc(N/C=C\C(=O)c2ccc(Cl)c(Cl)c2)no1`, the EC50 [4] is reported as 2.53 µM (active), the EC50 [3] is reported as 15 µM (active) and the EC50 (H4) is reported as > 120 µM (not active).
For `Cc1nc2c(ccc3nc(NC(=O)c4ccc5c(c4)OCCO5)sc32)s1`, the EC50 [1] was 3.07 µM (active) and the EC50 [2] was > 30 µM (not active).
In the case of `COc1ccc(C(=O)N2CCC3(CCCN(Cc4nccs4)C3)CC2)cc1`, the AC50 (Cytochrome P450 3A4) is reported as 7.94 µM (inconclusive).
With `Cn1c(=O)cc(OCCCC(=O)N2CCN(c3ccccc3)CC2)c2ccccc21` the AC50 (Cytochrome P450 1A2) was 15.8 µM (inconclusive) and the AC50 (Cytochrome P450 3A4) was 1.12 µM (inconclusive).
With `CCOc1ccc(Nc2ncnc3c2nnn3Cc2ccccc2)cc1` the EC50 [4] was 17.7 µM (active), the EC50 [3] was 18.8 µM (active) and the EC50 (H4) was 30.9 µM (active).
In the case of `O=C(Nn1cc(C(=O)N2CCN(c3ccccc3F)CC2)c2ccccc2c1=O)c1cnccn1`, the AC50 (Cytochrome P450 1A2) is reported as 12.6 µM (inconclusive) and the AC50 (Cytochrome P450 3A4) is reported as 28.2 µM (inconclusive).
In the case of `O=[N+]([O-])c1cc(-c2n(-c3ccccn3)c3ccccc3[n+]2-c2ccccn2)ccc1Cl`, the EC50 [4] is reported as 56.9 µM (active), the EC50 [3] is reported as 14.2 µM (active) and the EC50 (H4) is reported as > 120 µM (not active).
In the case of `O=[N+]([O-])c1cccc(-c2cn(-c3ccccc3)c(S)n2)c1`, the EC50 [4] is reported as 5.64 µM (active), the EC50 [3] is reported as > 120 µM (not active) and the EC50 (H4) is reported as > 120 µM (not active).
For `CCOC(=O)c1sc(NC(=O)c2cc(-c3ccccc3)nc3ccccc23)c(C#N)c1C`, the EC50 [5] was 0.544 µM (active).
In the case of `Cc1nc(-c2ccncc2)nc(NCCNc2ncccc2C(F)(F)F)c1Cl`, the EC50 [1] is reported as 0.364 µM (active) and the EC50 [2] is reported as > 60 µM (not active).
With `Cc1ccc(NC(=O)CCSc2nnc3ccccn23)cc1` the AC50 (Cytochrome P450 3A4) was 0.891 µM (inconclusive).
With `O=C(C[n+]1c2n(c3ccc(C(F)(F)F)cc31)CCCCC2)c1ccc2c(c1)OCCO2` the EC50 [1] was 1.3 µM (active) and the EC50 [2] was > 60 µM (not active).
With `CC(=O)Nc1cccc(OC(=O)c2ccoc2C)c1` the EC50 [5] was 4.9 µM (active).
For `CN(C(=O)c1ccc(S(=O)(=O)NC2CCCC2)cc1)C1CCCCC1`, the EC50 [5] was > 53 µM (inactive).
In the case of `O=C(Nc1ccc(SC(F)F)cc1)c1ccc2c(=O)n3c(nc2c1)CCC3`, the EC50 [5] is reported as 1.4 µM (active).
With `C=CCN1C(=O)NC(=O)/C(=C/c2cccn2C)C1=O` the AC50 (Cytochrome P450 1A2) was 15.8 µM (inconclusive).
For `O=C(CSc1nnc(-c2ccc(F)cc2)c2ccccc12)Nc1cccc(Cl)c1`, the EC50 [1] was 2.16 µM (active) and the EC50 [2] was > 30 µM (not active).
With `CN1CCN(CCCc2c3c(cc4c2CCC4)CCC3)CC1` the EC50 [1] was 0.601 µM (active) and the EC50 [2] was > 60 µM (not active).
With `CCOC(=O)c1sc2ncnc(N3CCN(CC)CC3)c2c1C` the EC50 [1] was 0.577 µM (active) and the EC50 [2] was > 60 µM (inconclusive).
In the case of `c1cncc(-c2nc(NCc3ccc4c(c3)OCO4)c3ccccc3n2)c1`, the EC50 [1] is reported as 0.921 µM (active) and the EC50 [2] is reported as > 30 µM (not active).
For `CCOC(=O)N1CC=C2C(C#N)=C(N)C(C#N)(C#N)[C@H](c3ccccc3OCC)[C@H]2C1`, the EC50 [4] was > 120 µM (not active), the EC50 [3] was > 120 µM (not active) and the EC50 (H4) was > 120 µM (not active).
With `CN(C)c1ncc2nc(-c3ccc(F)cc3)c(=O)n(Cc3cccs3)c2n1` the AC50 (Cytochrome P450 3A4) was 25.1 µM (inconclusive).
For `Cc1ccc(S(=O)(=O)Nc2cccc(C(=O)NC3CCN(Cc4ccccc4)CC3)c2)cc1F`, the EC50 [1] was 1.12 µM (active) and the EC50 [2] was > 60 µM (not active).
With `NC(=O)c1c(NC(=O)CCCn2cnc([N+](=O)[O-])n2)sc2c1CCCC2` the EC50 [1] was 0.125 µM (active) and the EC50 [2] was > 60 µM (not active).
With `CCc1ccc(N2CC(C(=O)NC3=NCCS3)CC2=O)cc1` (stereo unspecified) the AC50 (Cytochrome P450 1A2) was 20 µM (inconclusive).
In the case of `Cc1ccc2c(c1)/C(=N/C1CCCCC1)c1cc3ccccc3nc1-2`, the EC50 [4] is reported as 14.9 µM (active), the EC50 [3] is reported as 37.2 µM (active) and the EC50 (H4) is reported as 0.408 µM (active).
In the case of `N=C(N)NC(=O)c1nc(Cl)c(N)nc1N` [AMILORIDE HYDROCHLORIDE], the AC50 (Cytochrome P450 1A2) is reported as 6.31 µM (inconclusive).
In the case of `CNCCC=C1c2ccccc2CCc2ccccc21` [NORTRIPTYLINE], the AC50 (Cytochrome P450 1A2) is reported as 25.1 µM (inconclusive).
With `CS(=O)(=O)Nc1ccc([N+](=O)[O-])cc1OC1CCCCC1` [NS-398] the AC50 (Cytochrome P450 3A4) was 20 µM (inconclusive).
For `C[C@@H](C(=O)O)c1ccc(-c2ccccc2)c(F)c1` [TARENFLURBIL], the AC50 (Cytochrome P450 1A2) was 31.6 µM (inconclusive).
